Series [1] has as its target T1, adenosine deaminase (Type IV) from bovine spleen (Bos taurus, UniProt P56658).
T1 construct: adenosine deaminase (Type IV) from bovine spleen (a suspension in 3.2 M (NH4)2SO4, pH 6); from tissue; host or cells: bovine spleen
The series can be described thus: Inhibition of adenosine deaminase (Example 9). The series is classed as biochemical. To be noted: Lineweaver-Burk plot. The source says: The concentration of inhibitor, the title compound, used for the present study ranged from 4.6×10^−5 to 9.2×10^−5 M. The enzyme concentration used for each of the assays was 0.0235 units/mL. As computed by the Lineweaver-Burk plot.

For the next series, the system named is Hepatitis B virus (HBV). The series can be described thus: Anti-HBV assay in 2.2.15 cells (virion DNA, HBV RI). To be noted: for HBV RI, percentage of control / Virion DNA, percentage of control: 10 μM, day 9, 2.2.15 cells. It counts as cell-based. As to the method:
The anti-HBV assays were performed according to the published protocol of Korba and Milman, (Korba, B. E.; Milman, G. Antiviral Res., 15, 217 1991), using cultures of 2.2.15 cells. In brief, the assay consisted of (a) seeding the chronically HBV-producing human liver cells (Acs et al. Proc. Nat. Acad. Sci., 84, 464 1987) into 24-well tissue culture plates, and growing to confluence, (b) adding test compounds daily for a continuous 9-day period, harvesting culture media after day 9 and (c) lysing treated cells 24 hours following day 9 of treatment for the analysis of extracellular virion DNA and intracellular HBV genomic forms.
(§1) Anti-HBV activity and the toxicity against confluent 2.2.15 cells were determined by the previously described procedure (Korba, B. E., et al. Antivir. Res., 19:55-70, 1992; Korba, B. E., et al. Antivir. Res., 15:217-228, 1991). Briefly, confluent cultures of HBV transfected 2.2.15 cells were maintained on either 96-well or 24-well flat-bottomed tissue culture plates in RPMI 1640 medium with 2% fetal bovine serum (FBS). The cells were treated with test compounds daily for nine consecutive days. The culture media were harvested on day 9 to quantify the amount of virion DNA. On day 10, the cells were lysed to quantify the amount of intracellular HBV replicative intermediates (RI). The quantification of virion DNA and the HBV RI were done by blot hybridization methods (Korba, B. E., et al. Antivir. Res., 19:55-70, 1992; Korba, B. E., et al. Antivir. Res., 15:217-228, 1991). Cellular toxicity against separate cultures of confluent 2.2.15 cells was measured after treatment with the compounds for nine days under identical culture conditions as those used for the antiviral assay (Korba, B. E., et al. Antivir. Res., 19:55-70, 1992). Uptake of neutral red dye by treated cells was compared with dye uptake by untreated control cells (Korba, B. E., et al. Antivir. Res., 19:55-70, 1992).

The test system of series [2] is HBV ribonucleic acids (RNA). The series can be described thus: HBV RNA levels in 2.2.15 cells (blot hybridization). The series is classed as cell-based, Hepatitis B virus. Particulars: 10 μM, day 9, 2.2.15 cells. As to the method:
as §1
These compounds were evaluated for their ability to inhibit viral RNA synthesis in 2.2.15 cells. Since HBV uses host cellular RNA polymerase II during the transcription of viral RNA from the covalently closed circular HBV DNA during its replication, any effect on the synthesis of viral RNA by these compounds would mean interference with the cellular RNA polymerase which could lead to unacceptable cellular toxicity.

The subject of another series is HIV. Kind of series: Antiviral test against HIV. The series is classed as cell-based. On the procedure:
(§2) These compounds were also tested for their effects on HIV (Weislow, O. , et al., J. Natl. Cancer Inst., 81:577-586, 1989), herpes simplex virus (HSV)-1, HSV-2, cytomegalovirus (CMV), Varicella Zoster virus (VZV) and Epstein-Barr virus (EBV) replication (National Institute of Allergy and Infectious Diseases (NIAID), NIH, Bethesda, Md.).

Series [3] has as its system herpes simplex virus (HSV)-1. The series can be described thus: Antiviral test against HSV-1. It counts as cell-based. As to the method: as §2
A further series deals with cytomegalovirus (CMV). Kind of series: Antiviral test against CMV. It counts as cell-based. As to the method:
as §2

The subject of the next series is Epstein-Barr virus (EBV). The series can be described thus: Antiviral test against EBV. It counts as cell-based. On the procedure: as §2
The target of series [4] is T2, guanine deaminase (guanase) from rabbit liver (Oryctolagus cuniculus, UniProt G1T386).
T2 construct: from tissue; host or cells: rabbit liver
T2 sequence (G1T386 1-454): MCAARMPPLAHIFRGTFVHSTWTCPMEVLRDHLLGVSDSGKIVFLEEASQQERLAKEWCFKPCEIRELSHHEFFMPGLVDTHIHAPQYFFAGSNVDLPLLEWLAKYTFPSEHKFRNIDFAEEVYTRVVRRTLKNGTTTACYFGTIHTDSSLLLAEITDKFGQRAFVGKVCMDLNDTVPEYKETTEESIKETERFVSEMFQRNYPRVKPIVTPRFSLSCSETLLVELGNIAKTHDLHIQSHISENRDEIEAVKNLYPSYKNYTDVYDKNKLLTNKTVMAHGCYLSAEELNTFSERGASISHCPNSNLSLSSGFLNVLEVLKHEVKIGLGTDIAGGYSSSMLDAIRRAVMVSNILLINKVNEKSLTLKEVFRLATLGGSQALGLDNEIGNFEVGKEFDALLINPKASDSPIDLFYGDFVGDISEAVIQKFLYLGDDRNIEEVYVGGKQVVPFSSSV
Kind of series: Guanine deaminase assay (Example 17). To be noted: Lineweaver-Burk plots. The series is classed as biochemical. On the procedure: Stock solutions of the substrate, enzyme, and inhibitors were prepared using a 50 mM Tris-HCl buffer (pH 7.4). The enzyme kinetics was followed by measuring the change in optical density (decrease in absorbance) per minute of the substrate guanine. By keeping the concentration of the inhibitor constant, and by varying the substrate concentration, a set of kinetic data was obtained. Additional sets of data were generated using different concentrations of the inhibitor. The substrate concentration in each assay ranged 6-20 μM; a total of six different concentrations were employed. The inhibitor concentration used in each assay was 30 or 40 μM. The amount of enzyme used in each assay was 0.0076 unit. The Ki for inhibition assays was computed from Lineweaver-Burk plots. The Lineweaver-Burk plot (1/V vs 1/[S]), as well as the linear regression analysis of kinetic data, were performed using the program Quattro Pro (version 6.01) for Windows.™.

The subject of another series is SK-MEL-2. Kind of series: SRB anti-cancer assay, Melanoma. It counts as cell-based, human. To be noted: SK-MEL-2 (Melanoma), 48 h.
Another series has as its system SK-MEL-5. Kind of series: SRB anti-cancer assay, Melanoma. It counts as cell-based, human. Particulars: SK-MEL-5 (Melanoma), 48 h; for CC50: read-out: LC50 (the source's name).
The next series has as its system IGROV1. The series can be described thus: SRB anti-cancer assay, Ovarian Cancer. It counts as cell-based, human. To be noted: 48 h; for CC50: read-out: LC50 (the source's name).
In the next series the test system is MCF7. The series can be described thus: SRB anti-cancer assay, Breast Cancer. The series is classed as cell-based, human. Particulars: 48 h; for CC50: read-out: LC50 (the source's name).
Another series has as its system HS 578T. The series can be described thus: SRB anti-cancer assay, Breast Cancer. It counts as cell-based, human. To be noted: HS 578T (Breast Cancer), 48 h; for CC50: read-out: LC50 (the source's name).
In another series the test system is BT-549. The series can be described thus: SRB anti-cancer assay, Breast Cancer. Particulars: BT-549 (Breast Cancer), 48 h; for CC50: read-out: LC50 (the source's name). It counts as cell-based, human.
The next series has as its system SF-539. Kind of series: SRB anti-cancer assay, CNS Cancer. It counts as cell-based, human. Particulars: SF-539 (CNS Cancer), 48 h.
Where [5] appears, read: extracellular HBV virion DNA, 10 fold inhibition, 9 days, read-out: EC90 Virion.
Where [6] appears, read: extracellular HBV virion DNA, 9 days, read-out: EC50 Virion.

SMILES strings stand for the structures. Where two headings read alike, the source gives them in different places. Some results are limits rather than exact numbers.

T1 sequence (P56658 whole entry): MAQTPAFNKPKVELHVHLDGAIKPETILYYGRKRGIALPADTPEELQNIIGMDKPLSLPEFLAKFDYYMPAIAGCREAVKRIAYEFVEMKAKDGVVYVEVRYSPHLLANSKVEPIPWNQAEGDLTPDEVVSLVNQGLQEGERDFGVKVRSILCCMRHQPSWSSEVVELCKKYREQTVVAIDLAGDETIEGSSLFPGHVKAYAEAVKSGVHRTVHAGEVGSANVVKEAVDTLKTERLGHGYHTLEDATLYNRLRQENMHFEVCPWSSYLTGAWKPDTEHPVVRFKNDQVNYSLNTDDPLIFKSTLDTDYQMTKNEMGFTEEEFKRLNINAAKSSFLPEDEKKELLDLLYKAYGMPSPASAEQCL

By EC90 is commonly meant the point of the concentration-response curve where the effect stands at 90%. One may read the EC50 as the concentration needed to bring the measured effect to its halfway point. The term GI50 denotes the concentration at which growth is held to half of that of the control. A low value points to more potent growth inhibition. Usually LC50 stands for the concentration that kills 50% of the test population. Read a low LC50 as a more lethal substance. Broadly, the TGI is the concentration at which net growth stops. As to `N=c1nc(N)c2ncn([C@@H]3O[C@H](CO)[C@@H](O)[C@H]3O)c2c(N)n1` [Compound 14-2, 4,8-Diamino-6H-6-imino-1-β-D-ribofuranosylimidazo[4,5-e][1,3]diazepine], the “mode of inhibition of adenosine deaminase” value in [1] was “competitive inhibitor”. Besides, in the series on Hepatitis B virus (HBV), the “HBV RI, percentage of control” value was found to be 6 ± 1 % and the “Virion DNA, percentage of control” value amounted to 1 ± 1 %. In the series on Hepatitis B virus (HBV) (setting [5]), the EC90 stood at 4.7 ± 0.5 µM. In addition, in the series on Hepatitis B virus (HBV) (setting [6]), the EC50 amounted to 0.397 ± 0.03 µM. In series [2], the “2.1 Kb RNA, percentage of control” value is reported as 96 ± 8% and the “3.6 Kb RNA, percentage of control” value is given as 103 ± 9%. Moreover, the “antiviral activity against HIV” value in the series on HIV is “no antiviral activity”. Besides, in series [3], the “antiviral activity against HSV-1” value was “no antiviral activity”. Further, the “antiviral activity against CMV” value in the series with cytomegalovirus (CMV) was “no antiviral activity”. Besides, in the series with Epstein-Barr virus (EBV), the “antiviral activity against EBV” value was “no antiviral activity”. Besides, in series [4], the “inhibition of guanine deaminase (guanase), mode” value is “inactive”. In the series with SK-MEL-2, growth was halved (GI50) at 15.4 µM, the LC50 worked out at 76.9 µM and the TGI came out at 34.5 µM. In the series with SK-MEL-5, the concentration for 50% growth inhibition (GI50) was found to be 10.8 µM, the TGI came to 23.5 µM and the CC50 amounted to 50.9 µM. Moreover, in the series on IGROV1, the concentration for 50% growth inhibition (GI50) was determined as 14 µM, the TGI amounted to 30.5 µM and the CC50 was found to be 66.3 µM. In the series on MCF7, it took 5.81 µM to inhibit growth by half (GI50), the TGI is 22.3 µM and the CC50 came to 63.4 µM. Also, in the series with HS 578T, it took 7.58 µM to inhibit growth by half (GI50), the TGI is 31.6 µM and the CC50 is greater than 100 µM. In the series on BT-549, the GI50 is 15.6 µM, the TGI is 32.2 µM and the CC50 was 66.4 µM.

Consider `N=c1[nH]c(=O)c2ncn([C@@H]3O[C@H](CO)[C@@H](O)[C@H]3O)c2c(=O)[nH]1` [Compound 14-1, 6-Imino-6H-1-β-D-ribofuranosyl-4,5,7,8-tetrahydroimidazo[4,5-e][1,3]diazepine-4,8-dione], for which the “HBV RI, percentage of control” value with Hepatitis B virus (HBV) is reported as 15 ± 2 %. Besides, the “Virion DNA, percentage of control” value with Hepatitis B virus (HBV) is 4 ± 1 %. The EC90 stood at 1.29 µM with Hepatitis B virus (HBV) (assay repeated three times, read-out: average EC90 for HBV virion inhibition); 0.989 ± 0.11 µM in the series with Hepatitis B virus (HBV) (setting [5]); 7.3 ± 0.7 µM in the series on Hepatitis B virus (HBV) (intracellular HBV DNA replicative intermediates, 10 fold inhibition, 9 days, read-out: EC90 HBV RI). Also, the EC50 in the series with Hepatitis B virus (HBV) (setting [6]) was determined as 0.131 µM; in the series with Hepatitis B virus (HBV) (intracellular HBV DNA replicative intermediates, 9 days, read-out: EC50 HBV RI), 0.604 µM; with Hepatitis B virus (HBV) (transfected hepatoma cell line 2.2.15, Example 13, read-out: EC50 (anti-HBV activity)) it was 0.17 µM. Also, in [2], the “2.1 Kb RNA, percentage of control” value is recorded as 96 ± 7%. Further, the “3.6 Kb RNA, percentage of control” value in series [2] stood at 89 ± 9%. The “antiviral activity against HIV” value in the series on HIV is on record as “no antiviral activity”. Moreover, the “antiviral activity against HSV-1” value in series [3] is given as “no antiviral activity”. In addition, in the series on cytomegalovirus (CMV), the “antiviral activity against CMV” value is on record as “no antiviral activity”. Also, the “antiviral activity against EBV” value in the series with Epstein-Barr virus (EBV) is recorded as “no antiviral activity”. Moreover, the GI50 in the series with SF-539 and with BT-549 was greater than 100 µM throughout. Moreover, the TGI in the series on SF-539 and in the series on BT-549 was greater than 100 µM throughout. Moreover, the CC50 in the series with SF-539 (read-out: LC50 (the source's name)) and with BT-549 was greater than 100 µM each time.

For `N=c1nc(N)c2ncn([C@@H]3O[C@H](COC(=O)c4ccccc4)[C@@H](OC(=O)c4ccccc4)[C@H]3OC(=O)c3ccccc3)c2c(N)n1` [4,8-Diamino-6H-6-imino-1(2′,3′,5′-tri-O-benzoyl-β-D-ribofuranosyl)imidazo[4,5-e][1,3]diazepine], the GI50 is 2.6 µM in the series with SK-MEL-2; 1.36 µM in the series with SK-MEL-5; 5.13 µM with IGROV1; 1.47 µM in the series on MCF7; 15.8 µM in the series on HS 578T. The LC50 with SK-MEL-2 was 26.2 µM. Besides, the TGI came out at 6.87 µM with SK-MEL-2; 2.64 µM in the series with SK-MEL-5; 20.3 µM in the series on IGROV1; 3.12 µM in the series on MCF7; 40.1 µM in the series with HS 578T. The CC50 is 5.16 µM in the series with SK-MEL-5, 66.7 µM in the series with IGROV1, 6.61 µM in the series with MCF7 and greater than 100 µM in the series on HS 578T.

Source of the values: patent publication US6677310B1, “Ring-expanded nucleosides and nucleotides” (Nabi, priority 1999, dated 2004).
